Measurements reported in patent publication US20110165271A1, “ANTITUMORAL TERPENOID PHARMACEUTICAL COMPOSITION 'ABISILIN' EXHIBITING ANGIOGENESIS-INHIBITING ACTION” (priority 2008, published 2011).

Assays:
[1] = system: metastatic colorectal cancer; conditions: patients bearing metastatic colorectal cancer; increase from 15.6 months; cited from earlier work
[2] = system: breast adenocarcinoma Ca-755; experiment: Antitumor activity on transplantable tumor; type: in vivo, mice; conditions: Abisilin 50 mg/kg per os days 2-11 and/or Cisplatin 5 mg/kg once day 2
Procedure: (§1) The mice and rats were purchased from the Experimental Animal Division of the Blokhin Russian Oncologic Center, the Russian Academy of Medicinal Sciences, and maintained on an ordinary food ration.
(§2) Sunflower seed oil was used as the solvent for the pharmaceutical.
(§3) Cisplatin purchased from Bristol-Myers Squibb was used in the experiments.
(§4) Abisilin was administered to animals orally every day for 10 days, or in the following schedule: on the 2nd and 6th days or on the 2nd and 11th days. […] In the combined treatment, Abisilin was administered to mice orally every day for 10 days, beginning 48 h after tumor transplantation, in a dose of 50 mg/kg; the antitumor agent Cisplatin was administered once intraperitonially (ip) in a dose of 5 mg/kg. Animals bearing the aforementioned tumors were monitored until they died. The antitumor effects of the pharmaceutical were judged from percentage tumor growth inhibition (TGI, %) in the experimental animals against control animals.
(§5) The statistical significance of the antitumor effect against the untreated control was determined by the Fisher-Student test. The difference between the compared groups was regarded as statistically reliable when p≦0.05.

[3] = system: colon adenocarcinoma (CAC); experiment: Antitumor activity on transplantable tumor; type: in vivo, mice
Procedure: as §1, §2, §3, §4, §5

melanoma B-16 = experiment: Antitumor activity on transplantable tumor; type: in vivo, mice; conditions: Abisilin 50 mg/kg per os days 2-11 and/or Cisplatin 5 mg/kg once day 2
Procedure: as §1, §2, §3, §4, §5

Compound | total survival period [1] | TGI ([2]; day 7) | TGI ([2]; day 11) | TGI ([2]; day 14) | TGI ([2]; day 18) | TGI ([2]; day 22) | TGI ([3]; day 7, Abisilin 50 mg/kg per os days 2-11 and/or Cisplatin 5 mg/kg once day 2) | TGI ([3]; day 12, Abisilin 50 mg/kg per os days 2-11 and/or Cisplatin 5 mg/kg once day 2) | TGI ([3]; day 21, Abisilin 50 mg/kg per os days 2-11 and/or Cisplatin 5 mg/kg once day 2) | TGI ([3]; day 22, Cisplatin 5 mg/kg once day 2) | sensitivity of the tumor in monotherapy ([3]; monotherapy, Abisilin 50 mg/kg, Cisplatin 5 mg/kg) | TGI (melanoma B-16; day 7) | TGI (melanoma B-16; day 9) | TGI (melanoma B-16; day 11) | TGI (melanoma B-16; day 17)
Avastin: monoclonal antibody drug binding vascular endothelial growth factor (VEGF); active substance bevacizumab | 20.3 months | – | – | – | – | – | – | – | – | – | – | – | – | – | –
N.N.[Cl][Pt][Cl] [Cisplatin] | – | 86% | 62% | 52% | 43% | 39% | 0% | 22% | 14% | 35% | insensitive | 80% | 83% | 65% | 19%
